Data reported in the NIST ThermoML archive (doi:10.1016/j.jct.2007.02.004).

Experiment: xn = mol fraction of the nth substance listed
Conditions: 101 kPa, Liquid

CC(=O)c1ccccc1 [acetophenone] + CCOC(=O)OCC
mass density [kg/m3]
Conditions	293.15 K	303.15 K	313.15 K	323.15 K
x2 = 0.0511	1025.44	1016.4	1007.58	998.79
x2 = 0.1014	1023.08	1014.09	1005.19	996.27
x2 = 0.1501	1020.74	1011.77	1002.73	993.68
x2 = 0.1996	1018.43	1009.35	1000.2	991.08
x2 = 0.2465	1016.19	1007.04	997.78	988.56
x2 = 0.3041	1013.28	1004.02	994.63	985.24
x2 = 0.3467	1011.14	1001.78	992.31	982.8
x2 = 0.4001	1008.46	998.99	989.35	979.74
x2 = 0.4507	1005.87	996.27	986.55	976.77
x2 = 0.4888	1003.88	994.18	984.35	974.49
x2 = 0.5506	1000.64	990.73	980.71	970.76
x2 = 0.6038	997.77	987.73	977.48	967.47
x2 = 0.6498	995.25	985.06	974.69	964.54
x2 = 0.7104	991.92	981.54	971.04	960.63
x2 = 0.7513	989.53	979.05	968.47	957.86
x2 = 0.8078	986.29	975.68	964.89	954.13
x2 = 0.8522	983.66	972.91	961.99	951.07
x2 = 0.8993	980.83	969.91	958.99	947.76
x2 = 0.9488	977.82	966.78	955.63	944.32

CC(=O)c1ccccc1 [acetophenone] + CCCCCCO
mass density [kg/m3]
Conditions	293.15 K	303.15 K	313.15 K	323.15 K
x1 = 0.0498	828.67	821.42	813.97	806.47
x1 = 0.1009	838.84	831.49	823.85	816.28
x1 = 0.1517	848.99	841.56	833.75	826.11
x1 = 0.2106	860.83	853.32	845.32	837.59
x1 = 0.2474	868.27	860.71	852.58	844.8
x1 = 0.3028	879.54	871.9	863.61	855.74
x1 = 0.3426	887.68	879.99	871.57	863.65
x1 = 0.3978	899.04	891.28	882.7	874.71
x1 = 0.4512	910.1	902.26	893.55	885.48
x1 = 0.4985	919.95	912.05	903.23	895.1
x1 = 0.5526	931.29	923.31	914.38	906.19
x1 = 0.6071	942.79	934.73	925.7	917.44
x1 = 0.6491	951.7	943.59	934.49	926.17
x1 = 0.7101	964.72	956.53	947.35	938.95
x1 = 0.7485	972.96	964.73	955.5	947.06
x1 = 0.8019	984.49	976.21	966.9	958.4
x1 = 0.8521	995.4	987.06	977.72	969.16
x1 = 0.9045	1006.85	998.46	989.09	980.48
x1 = 0.9554	1018.05	1009.61	1000.23	991.56
